What was measured:
Assay type in all cases: biochemical
Settings in all cases: Rb substrate, ATP at 3x Km, Ki=IC50/(1+S/Km)
human cyclin E-CDK2 = human cyclin E-CDK2 (Homo sapiens, UniProt P24941); assay: CDK2 HTRF kinase assay (Ki measurement)
Method: (§1) This experiment was conducted using recombinant human cyclin B-CDK1, human cyclin E-CDK2 or human cyclin D1-CDK4 complexes. GST-cyclinE (GST-cycE), CDK2, GST-cyclinB (GST-cycB), CDK1, GST-CDK4 and cyclin D1 (cycD1) cDNA clones in baculovirus vectors were provided by Dr. W. Harper at the Baylor College of Medicine, Houston, Tex. Proteins were co-expressed in High Five™ insect cells and the complex was purified on glutathione Sepharose resin (Pharmacia, Piscataway, N.J.) as previously described (Harper, J. W. et al. Cell 1993, 75, 805-816). […]
(§2) The expression of the 62 Kd protein was under the control of an IPTG inducible promoter in an M15 E. coli strain. […] Purified Rb fusion protein stocks were quantitated for protein concentration, aliquoted, and stored at −70° C.
(§3) Using the protein constructs described above, CDK1, CDK2, and CDK4 HTRF assays were set up. These were done in 96-well format and read in 384-well plate format. […]
(§4) In the CDK4 assay, test compounds were diluted to 3× ntheir final concentrations in 25 mM Hepes, pH 7.0, 6.25 mM MgCl2, 1.5 mM DTT, 135 μM ATP. […] The plates were read using either ViewLux or Victor V readers (PerkinElmer Life Sciences) using an excitation wavelength of 340 nm and dual emission wavelengths of 615 nm and 665 nm. […]

human cyclin D1-CDK4 = human cyclin D1-CDK4 (Homo sapiens, UniProt P11802); assay: CDK4 HTRF kinase assay (Ki measurement)
Method: as §1, §2, §3, §4

human cyclin B-CDK1 = human cyclin B-CDK1 (Homo sapiens, UniProt P06493); assay: CDK1 HTRF kinase assay (Ki measurement)
Method: as §1, §2, §3, §4

Chain of human cyclin B-CDK1 (P06493 whole entry): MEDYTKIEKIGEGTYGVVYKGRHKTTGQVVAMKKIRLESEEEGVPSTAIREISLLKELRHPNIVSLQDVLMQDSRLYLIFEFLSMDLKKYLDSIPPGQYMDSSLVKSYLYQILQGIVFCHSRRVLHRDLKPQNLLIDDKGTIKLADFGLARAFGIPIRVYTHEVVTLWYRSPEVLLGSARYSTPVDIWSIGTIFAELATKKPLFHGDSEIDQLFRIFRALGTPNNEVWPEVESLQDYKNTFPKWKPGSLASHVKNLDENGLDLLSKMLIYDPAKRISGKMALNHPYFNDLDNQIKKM
Chain of human cyclin B-CDK1 (P14635 whole entry partner): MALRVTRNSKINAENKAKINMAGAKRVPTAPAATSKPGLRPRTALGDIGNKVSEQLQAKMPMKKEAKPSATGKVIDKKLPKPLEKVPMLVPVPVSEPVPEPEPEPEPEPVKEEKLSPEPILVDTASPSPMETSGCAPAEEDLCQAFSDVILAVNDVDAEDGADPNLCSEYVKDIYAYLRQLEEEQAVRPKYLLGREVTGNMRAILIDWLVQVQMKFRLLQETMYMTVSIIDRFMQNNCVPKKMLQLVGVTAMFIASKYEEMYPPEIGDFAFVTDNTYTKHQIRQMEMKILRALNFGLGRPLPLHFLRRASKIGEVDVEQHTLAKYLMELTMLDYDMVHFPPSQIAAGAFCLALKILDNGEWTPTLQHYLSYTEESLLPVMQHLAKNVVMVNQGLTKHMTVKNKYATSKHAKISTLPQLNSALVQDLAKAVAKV
Chain of human cyclin D1-CDK4 (P11802 whole entry): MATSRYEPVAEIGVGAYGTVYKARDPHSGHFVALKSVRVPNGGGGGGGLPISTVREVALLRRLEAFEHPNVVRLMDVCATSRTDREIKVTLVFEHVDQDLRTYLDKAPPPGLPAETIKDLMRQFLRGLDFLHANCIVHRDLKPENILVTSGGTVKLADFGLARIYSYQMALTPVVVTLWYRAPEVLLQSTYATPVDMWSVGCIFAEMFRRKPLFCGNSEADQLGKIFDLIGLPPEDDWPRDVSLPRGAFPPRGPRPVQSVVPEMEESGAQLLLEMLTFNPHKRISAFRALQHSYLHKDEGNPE
Chain of human cyclin D1-CDK4 (P24385 whole entry partner): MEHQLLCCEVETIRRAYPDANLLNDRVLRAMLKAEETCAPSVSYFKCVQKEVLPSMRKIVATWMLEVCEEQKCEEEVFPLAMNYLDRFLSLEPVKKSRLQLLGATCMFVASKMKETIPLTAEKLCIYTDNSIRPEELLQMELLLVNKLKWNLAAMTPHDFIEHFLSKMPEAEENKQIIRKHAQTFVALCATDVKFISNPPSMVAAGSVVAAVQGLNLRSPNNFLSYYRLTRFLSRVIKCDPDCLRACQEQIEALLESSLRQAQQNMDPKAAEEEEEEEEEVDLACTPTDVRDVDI

| Compound | Ki (human cyclin E-CDK2) [nM] | Ki (human cyclin D1-CDK4) [nM] | Ki (human cyclin B-CDK1) [nM] |
| --- | --- | --- | --- |
| COc1ccc(F)c(F)c1C(=O)c1sc(NC2CCN(S(C)(=O)=O)CC2)nc1N [Example 14, [4-Amino-2-(1-methanesulfonylpiperidin-4-ylamino)thiazol-5-yl]-(2,3-difluoro-6-methoxyphenyl)methanone] | 1 | 2 | 1 |
| CS(=O)(=O)N1CCC(Nc2nc(N)c(C(=O)c3c(F)cccc3F)s2)CC1 [Example 17, [4-Amino-2-(1-methanesulfonyl-piperidin-4-ylamino)thiazol-5-yl]-(2,6-difluorophenyl)methanone] | 5 | 6 | 3 |
